Assay results as given in BindingDB's records for doi:10.1016/j.chembiol.2016.11.007 (University of Connecticut, 2016).

Experiments:
Experiment in all cases: DHFR Inhibition Assay
[1] = target: T1, Dihydrofolate reductase (Staphylococcus aureus, UniProt Q4H3Y3)
T1 sequence (Q4H3Y3 whole entry): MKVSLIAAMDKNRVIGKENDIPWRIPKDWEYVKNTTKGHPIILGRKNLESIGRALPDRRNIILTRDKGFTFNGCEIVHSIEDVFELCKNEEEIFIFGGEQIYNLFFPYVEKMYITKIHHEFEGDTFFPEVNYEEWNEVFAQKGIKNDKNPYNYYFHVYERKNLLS

[2] = target: T2, Dihydrofolate reductase (Staphylococcus aureus, UniProt C7C2U7)
T2 sequence (C7C2U7 whole entry): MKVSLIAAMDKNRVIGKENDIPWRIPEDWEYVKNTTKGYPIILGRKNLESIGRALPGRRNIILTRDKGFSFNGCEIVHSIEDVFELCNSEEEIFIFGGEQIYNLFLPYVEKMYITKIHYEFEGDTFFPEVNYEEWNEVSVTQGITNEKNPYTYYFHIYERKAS

[3] = target: Dihydrofolate reductase type 1 from Tn4003 (Staphylococcus aureus, UniProt P13955)
[4] = target: Dihydrofolate reductase (Staphylococcus aureus, UniProt P0A017)
Sequence of Dihydrofolate reductase (Staphylococcus aureus, UniProt P0A017) (P0A017 whole entry): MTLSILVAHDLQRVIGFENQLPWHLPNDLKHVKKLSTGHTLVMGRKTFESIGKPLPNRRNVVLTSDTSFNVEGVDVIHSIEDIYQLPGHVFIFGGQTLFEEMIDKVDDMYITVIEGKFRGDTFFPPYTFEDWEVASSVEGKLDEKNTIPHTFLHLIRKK

Sequence of Dihydrofolate reductase type 1 from Tn4003 (P13955 whole entry): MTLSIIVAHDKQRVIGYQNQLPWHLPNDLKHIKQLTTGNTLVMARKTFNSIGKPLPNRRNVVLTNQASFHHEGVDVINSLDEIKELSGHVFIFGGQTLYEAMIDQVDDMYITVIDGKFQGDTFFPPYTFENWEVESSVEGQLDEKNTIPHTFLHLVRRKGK

Compound | IC50 [1] [nM] | IC50 [2] [nM] | IC50 [3] [nM] | IC50 [4] [nM]
CCc1nc(N)nc(N)c1C#CCc1cc(OC)c(OC)c(-c2ccncc2)c1 [UCP1039] | 450 | 22 | 360 | 
CCc1nc(N)nc(N)c1C#C[C@@H](C)c1cc(-c2ccc(C(=O)O)cc2)ccc1OC [UCP1164] |  |  | 8800 | 
CCc1nc(N)nc(N)c1C#C[C@@H](C)c1cc(OC)cc(-c2ccc(C(=O)O)cc2)c1 [UCP1172] |  |  | 410 | 
CCc1nc(N)nc(N)c1C#C[C@H](C)c1cc(OC)cc(-c2ccc(C(=O)O)cc2)c1 [UCP1173] |  |  | 270 | 
CCc1nc(N)nc(N)c1C#CCc1cc(OC)cc(-c2ccc(C(=O)O)cc2)c1 [UCP1175] | 1400 | 170 | 980 | 
CCc1nc(N)nc(N)c1C#CC(C)c1cc2c(c(-c3ccc(C(=O)O)cc3)c1)OCO2 (stereo unspecified) [UCP1191] | 87 | 41 | 320 | 10
CCc1nc(N)nc(N)c1C#C[C@@H](C)c1cc2c(c(-c3ccc(C(=O)O)cc3)c1)OCO2 [UCP1205] | 159 | 100 | 340 | 18
CCc1nc(N)nc(N)c1C#C[C@H](C)c1cc2c(c(-c3ccc(C(=O)O)cc3)c1)OCO2 [UCP1206] | 190 | 54 | 180 | 17
